Results reported in PMC6199744, “Development of Chemical Proteomics for the Folateome and Analysis of the Kinetoplastid Folateome” (ACS Infectious Diseases, 2018).
Like-named read-outs stand apart in the source and are kept apart here.

What was measured:
Format in all cases: binding
[1] = biological target: T1, HeLa cell extract proteins (Homo sapiens, UniProt O43809)
T1 construct: endogenous in cells; host or cells: HeLa cell extract

[2] = biological target: T2, HeLa cell extract proteins (Homo sapiens, UniProt O60547)
T2 construct: endogenous in cells; host or cells: HeLa cell extract
T2 sequence (O60547 1-372): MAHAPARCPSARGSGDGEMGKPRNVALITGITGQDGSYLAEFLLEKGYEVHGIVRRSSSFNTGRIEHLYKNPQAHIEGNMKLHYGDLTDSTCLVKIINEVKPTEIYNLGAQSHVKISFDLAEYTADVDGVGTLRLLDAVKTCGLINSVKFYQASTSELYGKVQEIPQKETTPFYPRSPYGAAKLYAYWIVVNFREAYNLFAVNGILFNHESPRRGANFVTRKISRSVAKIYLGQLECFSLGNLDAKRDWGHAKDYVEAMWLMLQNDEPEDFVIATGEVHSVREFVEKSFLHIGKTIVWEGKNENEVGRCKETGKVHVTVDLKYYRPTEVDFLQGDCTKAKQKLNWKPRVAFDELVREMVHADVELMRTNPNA

[3] = biological target: T3, HeLa cell extract proteins (Homo sapiens, UniProt P11310)
T3 construct: endogenous in cells; host or cells: HeLa cell extract
T3 sequence (P11310 26-421): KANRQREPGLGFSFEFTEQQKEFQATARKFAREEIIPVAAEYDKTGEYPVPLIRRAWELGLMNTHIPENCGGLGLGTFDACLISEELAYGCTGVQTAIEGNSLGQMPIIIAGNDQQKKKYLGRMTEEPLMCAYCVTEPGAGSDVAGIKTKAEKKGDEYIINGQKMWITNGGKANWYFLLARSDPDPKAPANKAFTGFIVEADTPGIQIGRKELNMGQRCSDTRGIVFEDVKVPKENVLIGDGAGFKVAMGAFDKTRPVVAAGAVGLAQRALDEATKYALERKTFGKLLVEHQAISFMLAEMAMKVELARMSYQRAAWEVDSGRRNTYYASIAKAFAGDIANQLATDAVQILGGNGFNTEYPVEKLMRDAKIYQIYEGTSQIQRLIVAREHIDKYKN

[4] = biological target: T4, HeLa cell extract proteins (Homo sapiens, UniProt P15311)
T4 construct: endogenous in cells; host or cells: HeLa cell extract

[5] = biological target: T5, HeLa cell extract proteins (Homo sapiens, UniProt P40926)
T5 construct: endogenous in cells; host or cells: HeLa cell extract
T5 sequence (P40926 25-338): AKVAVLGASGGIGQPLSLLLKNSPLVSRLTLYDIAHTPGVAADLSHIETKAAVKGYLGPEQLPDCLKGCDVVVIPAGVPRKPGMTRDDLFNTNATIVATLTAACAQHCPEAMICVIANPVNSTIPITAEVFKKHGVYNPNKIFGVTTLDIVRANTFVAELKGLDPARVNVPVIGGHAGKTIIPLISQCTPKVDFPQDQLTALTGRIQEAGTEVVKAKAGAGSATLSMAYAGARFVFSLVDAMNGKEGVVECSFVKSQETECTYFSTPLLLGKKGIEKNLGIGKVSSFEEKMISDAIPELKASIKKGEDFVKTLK

[6] = biological target: T6, HeLa cell extract proteins (Homo sapiens, UniProt P51648)
T6 construct: endogenous in cells; host or cells: HeLa cell extract

[7] = biological target: T7, HeLa cell extract proteins (Homo sapiens, UniProt P62333)
T7 construct: endogenous in cells; host or cells: HeLa cell extract
T7 sequence (P62333 whole entry): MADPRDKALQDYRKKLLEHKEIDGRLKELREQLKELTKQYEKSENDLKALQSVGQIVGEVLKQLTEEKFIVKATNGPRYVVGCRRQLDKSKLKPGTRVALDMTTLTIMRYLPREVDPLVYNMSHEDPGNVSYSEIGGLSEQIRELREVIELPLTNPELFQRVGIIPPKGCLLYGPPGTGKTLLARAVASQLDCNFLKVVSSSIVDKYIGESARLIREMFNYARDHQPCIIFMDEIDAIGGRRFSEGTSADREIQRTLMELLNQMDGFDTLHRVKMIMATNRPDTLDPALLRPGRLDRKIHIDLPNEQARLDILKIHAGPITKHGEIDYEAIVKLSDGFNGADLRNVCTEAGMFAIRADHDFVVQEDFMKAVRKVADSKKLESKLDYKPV

[8] = biological target: T8, HeLa cell extract proteins (Homo sapiens, UniProt P78527)
T8 construct: endogenous in cells; host or cells: HeLa cell extract
T8 sequence (P78527 whole entry): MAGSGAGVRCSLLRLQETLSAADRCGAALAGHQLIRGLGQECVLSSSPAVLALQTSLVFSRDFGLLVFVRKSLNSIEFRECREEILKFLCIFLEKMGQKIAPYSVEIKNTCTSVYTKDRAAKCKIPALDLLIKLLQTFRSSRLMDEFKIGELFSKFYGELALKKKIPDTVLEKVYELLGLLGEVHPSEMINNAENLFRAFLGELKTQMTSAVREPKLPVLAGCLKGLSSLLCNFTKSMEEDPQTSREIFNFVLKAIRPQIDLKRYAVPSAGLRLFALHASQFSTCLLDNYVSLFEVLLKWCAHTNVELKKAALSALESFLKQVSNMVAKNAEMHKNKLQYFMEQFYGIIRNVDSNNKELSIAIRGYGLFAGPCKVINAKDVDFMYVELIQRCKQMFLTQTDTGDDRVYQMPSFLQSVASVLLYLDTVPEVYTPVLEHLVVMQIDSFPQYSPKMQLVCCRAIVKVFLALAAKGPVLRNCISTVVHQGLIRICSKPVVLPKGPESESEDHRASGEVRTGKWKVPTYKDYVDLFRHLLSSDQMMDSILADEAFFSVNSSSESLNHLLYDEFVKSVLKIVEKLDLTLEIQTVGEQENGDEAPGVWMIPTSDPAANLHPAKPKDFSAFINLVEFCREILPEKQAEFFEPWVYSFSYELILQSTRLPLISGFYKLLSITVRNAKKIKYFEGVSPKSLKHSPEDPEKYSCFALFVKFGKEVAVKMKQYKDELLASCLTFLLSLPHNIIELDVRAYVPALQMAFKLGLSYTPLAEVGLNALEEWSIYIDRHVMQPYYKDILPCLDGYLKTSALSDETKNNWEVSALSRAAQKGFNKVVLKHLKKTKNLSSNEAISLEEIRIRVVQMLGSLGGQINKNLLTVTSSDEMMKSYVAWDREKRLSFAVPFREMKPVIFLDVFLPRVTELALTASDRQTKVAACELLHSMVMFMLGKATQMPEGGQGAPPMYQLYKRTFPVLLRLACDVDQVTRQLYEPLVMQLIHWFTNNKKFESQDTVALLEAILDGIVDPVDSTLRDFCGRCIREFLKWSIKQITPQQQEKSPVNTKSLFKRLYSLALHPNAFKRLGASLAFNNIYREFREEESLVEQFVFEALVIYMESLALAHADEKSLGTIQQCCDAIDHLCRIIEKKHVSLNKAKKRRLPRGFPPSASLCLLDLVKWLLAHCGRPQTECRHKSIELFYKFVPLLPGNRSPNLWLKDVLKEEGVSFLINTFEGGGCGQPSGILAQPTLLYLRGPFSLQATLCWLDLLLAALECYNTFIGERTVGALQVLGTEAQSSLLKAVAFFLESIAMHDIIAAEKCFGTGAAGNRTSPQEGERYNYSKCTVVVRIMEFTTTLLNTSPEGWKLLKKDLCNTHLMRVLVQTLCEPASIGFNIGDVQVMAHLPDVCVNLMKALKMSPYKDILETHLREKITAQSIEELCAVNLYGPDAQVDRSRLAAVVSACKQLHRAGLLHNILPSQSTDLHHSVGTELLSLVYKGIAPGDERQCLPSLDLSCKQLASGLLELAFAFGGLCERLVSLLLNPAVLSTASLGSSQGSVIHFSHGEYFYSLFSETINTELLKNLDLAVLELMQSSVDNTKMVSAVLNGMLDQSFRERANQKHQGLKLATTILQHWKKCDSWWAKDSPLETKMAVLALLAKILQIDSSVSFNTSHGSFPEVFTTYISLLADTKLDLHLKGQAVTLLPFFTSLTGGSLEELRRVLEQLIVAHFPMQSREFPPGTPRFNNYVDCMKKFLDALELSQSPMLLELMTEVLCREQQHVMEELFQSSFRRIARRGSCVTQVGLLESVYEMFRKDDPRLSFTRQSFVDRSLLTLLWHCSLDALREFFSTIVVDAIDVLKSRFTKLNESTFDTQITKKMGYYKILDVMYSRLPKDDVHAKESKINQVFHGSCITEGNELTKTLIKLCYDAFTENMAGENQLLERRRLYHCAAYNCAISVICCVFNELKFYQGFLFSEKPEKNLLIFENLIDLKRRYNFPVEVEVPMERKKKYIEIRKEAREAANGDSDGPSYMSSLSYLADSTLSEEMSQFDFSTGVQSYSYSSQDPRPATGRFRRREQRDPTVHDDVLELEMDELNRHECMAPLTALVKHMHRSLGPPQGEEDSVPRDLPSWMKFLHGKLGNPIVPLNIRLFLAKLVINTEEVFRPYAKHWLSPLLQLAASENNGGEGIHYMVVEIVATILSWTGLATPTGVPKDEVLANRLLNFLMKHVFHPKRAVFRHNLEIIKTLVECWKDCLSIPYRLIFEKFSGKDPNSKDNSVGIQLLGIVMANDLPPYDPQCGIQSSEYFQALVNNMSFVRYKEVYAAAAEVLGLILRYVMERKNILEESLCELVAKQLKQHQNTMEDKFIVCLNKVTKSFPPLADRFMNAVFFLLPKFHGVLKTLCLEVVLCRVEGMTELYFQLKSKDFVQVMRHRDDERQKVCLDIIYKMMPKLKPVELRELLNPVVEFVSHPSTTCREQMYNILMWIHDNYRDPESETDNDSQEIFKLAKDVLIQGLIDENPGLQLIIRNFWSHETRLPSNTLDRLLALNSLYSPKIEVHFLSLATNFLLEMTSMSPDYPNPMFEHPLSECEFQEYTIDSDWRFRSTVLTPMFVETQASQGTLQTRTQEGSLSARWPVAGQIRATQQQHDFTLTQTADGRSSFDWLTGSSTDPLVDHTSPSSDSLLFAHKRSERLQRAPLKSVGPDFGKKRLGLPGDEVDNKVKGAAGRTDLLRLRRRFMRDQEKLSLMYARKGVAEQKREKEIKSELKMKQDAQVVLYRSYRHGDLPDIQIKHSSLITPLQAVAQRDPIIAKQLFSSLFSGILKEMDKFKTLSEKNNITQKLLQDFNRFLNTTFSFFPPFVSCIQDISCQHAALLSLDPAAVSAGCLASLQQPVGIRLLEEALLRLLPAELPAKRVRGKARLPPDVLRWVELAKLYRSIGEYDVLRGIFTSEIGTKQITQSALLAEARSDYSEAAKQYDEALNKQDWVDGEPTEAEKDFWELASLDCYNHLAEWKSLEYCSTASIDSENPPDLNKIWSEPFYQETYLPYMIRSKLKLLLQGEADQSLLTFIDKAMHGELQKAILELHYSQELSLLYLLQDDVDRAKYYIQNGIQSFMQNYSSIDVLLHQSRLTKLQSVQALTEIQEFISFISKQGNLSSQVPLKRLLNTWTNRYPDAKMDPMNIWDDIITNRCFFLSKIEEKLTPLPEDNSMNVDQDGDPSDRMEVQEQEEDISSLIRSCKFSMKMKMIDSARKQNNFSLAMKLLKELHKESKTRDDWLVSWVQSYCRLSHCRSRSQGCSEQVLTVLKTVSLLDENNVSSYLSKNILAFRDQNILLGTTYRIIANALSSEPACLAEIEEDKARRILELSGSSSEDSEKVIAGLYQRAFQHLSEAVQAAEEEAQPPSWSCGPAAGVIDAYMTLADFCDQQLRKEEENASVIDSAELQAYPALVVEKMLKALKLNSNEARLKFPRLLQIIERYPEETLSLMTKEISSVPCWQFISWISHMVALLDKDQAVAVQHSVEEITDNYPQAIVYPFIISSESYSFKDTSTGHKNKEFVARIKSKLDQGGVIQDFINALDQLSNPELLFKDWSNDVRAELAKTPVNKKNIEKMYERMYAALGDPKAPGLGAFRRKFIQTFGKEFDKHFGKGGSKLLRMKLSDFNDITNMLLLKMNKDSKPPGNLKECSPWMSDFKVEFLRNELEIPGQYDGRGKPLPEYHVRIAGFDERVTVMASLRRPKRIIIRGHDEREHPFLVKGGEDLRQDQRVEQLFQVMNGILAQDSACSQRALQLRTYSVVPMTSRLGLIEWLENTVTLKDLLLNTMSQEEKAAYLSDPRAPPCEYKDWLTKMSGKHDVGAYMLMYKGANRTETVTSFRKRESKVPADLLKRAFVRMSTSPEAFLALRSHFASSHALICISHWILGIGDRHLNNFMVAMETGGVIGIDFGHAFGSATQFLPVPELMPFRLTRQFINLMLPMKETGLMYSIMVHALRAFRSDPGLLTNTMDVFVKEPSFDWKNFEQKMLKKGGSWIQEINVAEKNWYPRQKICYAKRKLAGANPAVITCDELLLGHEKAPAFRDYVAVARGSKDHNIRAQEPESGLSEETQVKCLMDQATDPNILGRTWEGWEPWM

[9] = biological target: T9, HeLa cell extract proteins (Homo sapiens, UniProt Q00610)
T9 construct: endogenous in cells; host or cells: HeLa cell extract

[10] = biological target: T10, HeLa cell extract proteins (Homo sapiens, UniProt Q13409)
T10 construct: endogenous in cells; host or cells: HeLa cell extract
T10 sequence (Q13409 whole entry): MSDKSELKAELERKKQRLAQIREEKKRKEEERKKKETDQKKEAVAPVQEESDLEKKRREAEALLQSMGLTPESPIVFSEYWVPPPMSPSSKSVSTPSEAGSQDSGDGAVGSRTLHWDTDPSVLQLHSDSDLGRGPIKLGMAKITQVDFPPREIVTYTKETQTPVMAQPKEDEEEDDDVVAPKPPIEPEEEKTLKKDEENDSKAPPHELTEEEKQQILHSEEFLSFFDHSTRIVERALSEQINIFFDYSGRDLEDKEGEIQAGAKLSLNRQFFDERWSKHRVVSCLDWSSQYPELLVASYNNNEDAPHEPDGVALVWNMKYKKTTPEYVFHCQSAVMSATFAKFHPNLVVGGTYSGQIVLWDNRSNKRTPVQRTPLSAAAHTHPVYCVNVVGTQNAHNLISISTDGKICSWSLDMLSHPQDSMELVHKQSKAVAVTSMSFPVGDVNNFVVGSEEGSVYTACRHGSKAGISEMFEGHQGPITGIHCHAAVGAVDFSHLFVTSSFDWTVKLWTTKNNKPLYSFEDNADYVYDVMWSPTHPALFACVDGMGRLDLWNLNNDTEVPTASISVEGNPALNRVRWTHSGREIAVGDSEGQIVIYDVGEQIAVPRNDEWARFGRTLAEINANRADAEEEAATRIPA

[11] = biological target: T11, HeLa cell extract proteins (Homo sapiens, UniProt Q14566)
T11 construct: endogenous in cells; host or cells: HeLa cell extract
T11 sequence (Q14566 1-821): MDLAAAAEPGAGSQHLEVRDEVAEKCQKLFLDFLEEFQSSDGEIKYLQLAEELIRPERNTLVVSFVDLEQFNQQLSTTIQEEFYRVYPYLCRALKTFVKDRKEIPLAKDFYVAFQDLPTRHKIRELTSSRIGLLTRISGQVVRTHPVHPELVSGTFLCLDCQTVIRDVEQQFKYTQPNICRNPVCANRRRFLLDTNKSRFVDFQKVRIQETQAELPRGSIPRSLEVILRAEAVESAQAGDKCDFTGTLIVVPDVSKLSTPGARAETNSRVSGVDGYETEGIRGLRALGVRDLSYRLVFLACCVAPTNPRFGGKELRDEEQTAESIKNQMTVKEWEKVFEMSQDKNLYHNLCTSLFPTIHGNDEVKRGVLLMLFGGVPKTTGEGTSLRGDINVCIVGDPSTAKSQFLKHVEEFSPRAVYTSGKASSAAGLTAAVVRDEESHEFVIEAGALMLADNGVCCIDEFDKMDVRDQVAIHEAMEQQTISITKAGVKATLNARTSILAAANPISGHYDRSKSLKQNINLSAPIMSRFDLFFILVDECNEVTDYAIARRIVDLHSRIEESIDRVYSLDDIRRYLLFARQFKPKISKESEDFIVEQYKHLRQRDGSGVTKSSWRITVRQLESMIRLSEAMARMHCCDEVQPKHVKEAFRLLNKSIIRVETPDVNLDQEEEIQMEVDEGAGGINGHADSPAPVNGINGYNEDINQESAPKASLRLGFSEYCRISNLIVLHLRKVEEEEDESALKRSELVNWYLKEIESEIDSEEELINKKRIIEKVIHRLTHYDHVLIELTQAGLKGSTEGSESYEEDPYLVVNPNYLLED

[12] = biological target: T12, HeLa cell extract proteins (Homo sapiens, UniProt Q92621)
T12 construct: endogenous in cells; host or cells: HeLa cell extract

[13] = biological target: T13, HeLa cell extract proteins (Homo sapiens, UniProt Q9Y6K9)
T13 construct: endogenous in cells; host or cells: HeLa cell extract

[14] = HeLa, protein PRKDC (ISOFORM 1 OF DNA-DEPENDENT PROTEIN KINASE CATALYTIC SUBUNIT)
[15] = HeLa, protein CLTC (ISOFORM 1 OF CLATHRIN HEAVY CHAIN 1)
[16] = HeLa, protein IKBKG (INHIBITOR OF KAPPAB KINASE GAMMA)
[17] = HeLa, protein ACADM (HY[…] DKFZP686M24262)

| SMILES | fold changes relative to vehicle control ([1]; protein NUDT21, HeLa) | fold changes relative to vehicle control ([2]; HeLa, protein GMDS) | fold changes relative to vehicle control ([3]; protein ACADM, HeLa) | fold changes relative to vehicle control ([4]; protein EZR, HeLa) | fold changes relative to vehicle control ([5]; protein MDH2, HeLa) | fold changes relative to vehicle control ([6]; HeLa, protein ALDH3A2) | fold changes relative to vehicle control ([7]; protein PSMC6, HeLa) | fold changes relative to vehicle control ([8]; HeLa, protein PRKDC) | fold changes relative to vehicle control ([9]; protein CLTC, HeLa) | fold changes relative to vehicle control ([10]; HeLa, protein DYNC1I2) | fold changes relative to vehicle control ([11]; protein MCM6, HeLa) | fold changes relative to vehicle control ([12]; captured protein NUP205, HeLa) | fold changes relative to vehicle control ([2]; HeLa, captured protein GMDS) | fold changes relative to vehicle control ([4]; HeLa, protein EZR) | fold changes relative to vehicle control ([5]; HeLa, protein MDH2) | fold changes relative to vehicle control [8, 14] | fold changes relative to vehicle control [9, 15] | fold changes relative to vehicle control ([11]; HeLa, protein MCM6) | fold changes relative to vehicle control ([12]; HeLa, captured protein NUP205) | fold changes relative to vehicle control [13, 16] | other results |
| --- | --- | --- | --- | --- | --- | --- | --- | --- | --- | --- | --- | --- | --- | --- | --- | --- | --- | --- | --- | --- | --- |
| CCCCCCOc1cccc(Cc2cnc(N)nc2N)c1 [compound 2] | 1.28 | 1.21 | 1.75 | 1.87 | 1.97 | 1.07 | 1.57 | 0.89 | 1.07 | 1.13 | 2.32 | 1.1 |  |  |  |  |  |  |  |  | fold changes relative to vehicle control ([13]; captured protein IKBKG, HeLa): 1.1 |
| NCCOCCOCC(=O)Nc1nc2ncc(CNc3ccc(C(=O)NC(CCC(=O)O)C(=O)O)cc3)nc2c(=O)[nH]1 (stereo not drawn) [compound 6] | 1 |  |  |  |  | 0.92 | 1.07 |  |  | 0.93 |  |  | 0.98 | 1.16 | 1.34 | 1.17 | 1.11 | 1.3 | 1.16 | 0.96 | fold changes relative to vehicle control ([3]; HeLa, protein ACADM (HYPOTHETICAL PROTEIN DKFZP686M24262)): 1.43 |
| CCCCCCOc1ccc(Cc2cnc(N)nc2N)cc1 [compound 1] | 1.16 | 1.06 | 1.17 | 1.23 | 1.26 | 0.94 | 1.1 | 1.01 | 0.83 | 0.88 | 1.15 | 1.03 |  |  |  |  |  |  |  |  | fold changes relative to vehicle control ([13]; captured protein IKBKG, HeLa): 1.08 |
| Nc1nc2c(c(=O)[nH]1)N(C=O)C(CNc1ccc(C(=O)N[C@@H](CCC(=O)O)C(=O)O)cc1)CN2 (stereo partly drawn) [LEU, leucovorin] | 1.11 |  |  |  |  | 0.89 | 0.84 |  |  | 0.9 |  |  | 1 | 0.94 | 1.06 | 1.05 | 1.27 | 1.28 | 1.03 | 0.98 | fold changes relative to vehicle control [3, 17]: 1.16 |
| NCCCNc1ccc(C(=O)NC(CCC(=O)O)C(=O)O)cc1 (stereo not drawn) [compound 7] | 0.98 |  |  |  |  | 0.89 | 0.96 |  |  | 0.95 |  |  | 1.12 | 0.92 | 0.96 | 1.16 | 1.18 | 1.06 | 1.16 | 1.15 | fold changes relative to vehicle control [3, 17]: 1.06 |
| Nc1nc2[nH]cc(CCc3ccc(C(=O)N[C@@H](CCC(=O)O)C(=O)O)cc3)c2c(=O)[nH]1 [PTX, pemetrexed] |  |  |  |  |  |  |  |  |  |  |  |  |  |  |  |  |  |  |  |  | fold changes relative to vehicle control [1]: 0.97; fold changes relative to vehicle control [2]: 1; fold changes relative to vehicle control [3]: 1.3; fold changes relative to vehicle control [4]: 1; fold changes relative to vehicle control [5]: 1.11; fold changes relative to vehicle control [6]: 0.93; fold changes relative to vehicle control [7]: 0.92; fold changes relative to vehicle control [8]: 1.06; fold changes relative to vehicle control [9]: 1.24; fold changes relative to vehicle control [10]: 0.94; fold changes relative to vehicle control [11]: 1.05; fold changes relative to vehicle control [12]: 1.09; fold changes relative to vehicle control [13]: 1.02 |
